The values that follow come from patent US12064455B2, “Free fatty acids and methods of manufacture and use for treating coronavirus and other viral respiratory infections” (priority 2020, dated 2024).

Like-named read-outs stand apart in the source and are kept apart here.

Data set [1] concerns HRV-14. It is filed as cell-based, human rhinovirus.
The subject of data set [2] is RSV. The data set is classed as cell-based, respiratory syncytial virus.
The test system of data set [3] is Ad-5. It is filed as cell-based, Adenovirus Type 5.
Data set [4] concerns SARS-CoV-2. It is filed as cell-based. The note with it: Ethanol 35%.
The test system of data set [5] is Influenza(H1N1)pdm09 virus. The experiment in a line: Neutralization/virucidal assay, Example 8. The data set is classed as cell-based, influenza A(H1N1)pdm09. The note with it: Ethanol 70%.
Data set [6] concerns PIV-3. It is filed as cell-based, parainfluenza virus type 3.
The subject of data set [7] is A549. The experiment in a line: Toxicity controls, Example 8. The data set is classed as cell-based. The note with it: Ethanol 70%; Ad-5 test; highest dilution with full (80-100%) cytotoxicity.
The test system of data set [8] is hCoV-229E. The experiment in a line: Neutralization/virucidal assay, Example 8.
The subject of data set [9] is MDCK.
Data set [10] has as its system Huh7.
Data set [11] deals with MA-104. The experiment in a line: Toxicity controls, Example 8. The note with it: Ethanol 70%, highest dilution with full (80-100%) cytotoxicity.
The subject of data set [12] is HeLa. The experiment in a line: Toxicity controls, Example 8. The note with it: Ethanol 70%; HRV-14 test; highest dilution with full (80-100%) cytotoxicity.

As for `CCO` [Ethanol], the “Virus Titer” value in data set [1] is recorded as 4.5 log10 CCID50 of virus per 0.1 mL; in data set [2] it was 1.0 log10 CCID50 of virus per 0.1 mL; in [3] it was 5.3 log10 CCID50 of virus per 0.1 mL; in data set [4] (assay replicate 1), <0.7 Log10CCID50 of virus per 0.1 ml; in data set [4] (assay replicate 2), <0.7 Log10CCID50 of virus per 0.1 ml; in [5] (contact time 10-min at 22 ± 2° C.) it was 3.0 log10 CCID50 of virus per 0.1 mL. The “Virus Titer” value in [8] was <0.7 log10 CCID50 of virus per 0.1 mL. The LRV was 2.0 in [2]; 3.4 in data set [3]; >3.6− in data set [4] (assay replicate 1); greater than 3.3 in data set [4] (assay replicate 2); 4.0 in [5] (contact time 10-min, vs virus control); greater than 2.3 in [6]. In data set [8] (Ethanol 70%, contact time 10-min, vs virus control), this molecule gave an LRV greater than 2.0. The Toxicity entry in data set [7], in [9], in [10], in [11] (PIV-3 test), in data set [11] (RSV test) and in data set [12] was “None” throughout.
